Structures can show the parent of a compound that is named as a salt. Where two headings read alike, the source gives them in different places.
Legend:
[1] = target: T1, human adenosine A3 receptors (Homo sapiens, UniProt P0DMS8); test: Test of adenosine A3 receptor binding ([125I]AB-MECA, transfected HEK293 cell homogenate); conditions: for inhibition at 0.1 µM: read-out: The rate of inhibition (%) 10^-7 M; for inhibition at 0.01 µM: read-out: The rate of inhibition (%) 10^-8 M
T1 construct: expressed in transfected cells; host or cells: HEK293
T1 sequence (P0DMS8 1-318): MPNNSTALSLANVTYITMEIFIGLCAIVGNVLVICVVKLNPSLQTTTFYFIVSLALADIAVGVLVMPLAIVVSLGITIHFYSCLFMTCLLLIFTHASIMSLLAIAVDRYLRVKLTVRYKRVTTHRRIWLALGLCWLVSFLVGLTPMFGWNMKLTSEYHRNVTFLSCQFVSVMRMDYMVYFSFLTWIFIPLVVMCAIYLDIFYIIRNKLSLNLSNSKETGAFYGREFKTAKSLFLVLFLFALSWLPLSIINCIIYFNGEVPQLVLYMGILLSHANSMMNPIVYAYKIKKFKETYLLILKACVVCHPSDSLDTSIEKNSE
Method: The transfected HEK293 cells that expressed the human adenosine A3 receptors were homogenized in 5 mM tris(hydroxymethyl)aminomethane hydrochloric acid buffer containing 5 mM magnesium chloride (pH 7.6) by a Teflon homogenizer (Iuchiseieido Corp.). The resultant suspension was centrifuged (4000×g, 20 minutes), and a 50 mM tris(hydromethyl)aminomethane/10 mM magnesium chloride/hydrochloric acid buffer (pH 7.6) (referred to as "the Tris-HCl buffer" hereinafter) was added to the precipitate to generate the cell suspension ( the protein concentration 0.25 mg/ml). To the cell suspension was added adenosine deaminase so that the concentration was 2 U/ml, and the resultant mixture was used in the following binding experiment.
The glass fiber filter was transferred to a polypropylene tube, and the radioactivity was measured by a gamma counter (Packard Corp.).
(Rate of inhibition)=(A-B)/(C-D)×100
A: Amount of binding in the presence of the test compound
B: Amount of non-specific binding
C: Amount of total binding
D: Amount of non-specific binding

[2] = test system: compound 48/80 induced pruritic action; test: Test of inhibition of compound 48/80 induced pruritic action (scratching behavior in mice); type: in vivo, ddy mice; conditions: for (A) The number of scratching behavior/10 minutes: compound 48/80 0.5 mg/kg s.c., n=10; for (B) The rate of inhibition (%): number of scratching behavior relative to control group
Method: A group consisting of 10 ddy mice (Japanese SLC) having a body weight of […] was used in the test. After compound 5 was orally administered, 0.5 mg/kg of compound 48/80 was subcutaneously administered in a volume of 0.1 ml per 20 g. 10 minutes after administration of compound 48/80, the number of scratching behavior was measured for 10 minutes. The rate of inhibition of the group of mice administered with compound 5 relative to the number of scratching behavior of a control group was calculated, and ED50 was calculated from the rate of inhibition.

ddY mice = conditions: mouse, in vivo
Excerpt: A group consisting of three ddY mice (Japanese SLC) having a body weight of 19 to 21 g was used. One week after oral administration of compound 5, death of the mice was observed.

[3] = 10^-7 M test compound, [125I]AB-MECA 0.1 nM
[4] = 10^-8 M test compound, [125I]AB-MECA 0.1 nM

Structure (SMILES): CCN1C(=O)N2CCN=C2c2[nH]c(-c3ccc(Br)cc3)nc21 [Compound 1, 2-(p-Bromophenyl)-4-ethyl-1,4,7,8-tetrahydro-5H-imidazo[2,1-i]purine-5-one hydrochloride]
- inhibition at 0.1 µM [1]: 97%
- inhibition at 0.01 µM [1]: 88%

Structure (SMILES): CCN1C(=O)N2CCCN=C2c2[nH]c(-c3ccc(Br)cc3)nc21 [Compound 2, 2-(p-Bromophenyl)-4-ethyl-1,4,5,7,8,9-hexahydropyrimido [2,1-i]purine-5-onehydrochloride]
- inhibition at 0.1 µM [1, 3]: 55%
- inhibition at 0.01 µM [1, 4]: 29%

Structure (SMILES): CCN1C(=O)N2CC(C)N=C2c2[nH]c(-c3ccc(Br)cc3)nc21 (centres unmarked) [Compound 3, 2-(p-Bromophenyl)-4-ethyl-8-methyl-1,4,7,8-tetrahydro-5H-imidazo [2,1-i]-purine-5-one hydrochloride]
- inhibition at 0.1 µM [1]: 96%
- inhibition at 0.01 µM [1]: 65%

Structure (SMILES): CCC1CN2C(=O)N(CC)c3nc(-c4ccc(Br)cc4)[nH]c3C2=N1 (centres unmarked) [Compound 4, 2-(p-Bromophenyl)-4,8-diethyl-1,4,7,8-tetrahydro-5H-imidazo[2,1-i]purine-5-one hydrochloride]
- inhibition at 0.1 µM [1]: 90%
- inhibition at 0.01 µM [1]: 73%

Structure (SMILES): CCCN1C(=O)N2CCN=C2c2[nH]c(-c3ccc(Br)cc3)nc21.Cl [Compound 5, 2-(p-Bromophenyl)-4-propyl-1,4,7,8-tetrahydro-5H-imidazo [2,1-i]purine-5-one hydrochloride]
- (A) The number of scratching behavior/10 minutes ([2]; 30 mg/kg p.o.): 10.70 ± 4.45 /10 minutes
- (B) The rate of inhibition (%) ([2]; 30 mg/kg p.o.): 34.0%
- (A) The number of scratching behavior/10 minutes ([2]; 100 mg/kg p.o.): 7.60 ± 3.12 /10 minutes
- (B) The rate of inhibition (%) ([2]; 100 mg/kg p.o.): 53.1%
- (A) The number of scratching behavior/10 minutes ([2]; 300 mg/kg p.o.): 6.00 ± 2.88 /10 minutes
- (B) The rate of inhibition (%) ([2]; 300 mg/kg p.o.): 63.0%
- ED50 ([2]; Mus musculus, po, calculated from the rate of inhibition): 96.8 mg/kg
- inhibitory action on the compound 48/80 induced itching ([2]; p.o., mice): exhibited its inhibitory action
- death of the mice (ddY mice): no death was observed

Structure (SMILES): CCCN1C(=O)N2CCCN=C2c2[nH]c(-c3ccc(Br)cc3)nc21 [Compound 6, hydrochloride]
- inhibition at 0.01 µM [1, 4]: 98%

Structure (SMILES): CCCN1C(=O)N2CC(CC)N=C2c2[nH]c(-c3ccc(Br)cc3)nc21 (centres unmarked) [Compound 8, 2-(p-Bromophenyl)-8-ethyl-4-propyl-1,4,7,8-tetrahydro-5H-imidazo[2,1-i]purine-5-one hydrochloride]
- inhibition at 0.1 µM [1]: 96%

Structure (SMILES): CCOC(=O)/C=C/c1ccc(-c2nc3c([nH]2)C2=NCCN2C(=O)N3CC)cc1 [Compound 13, Ethyl (E)-4-(4-ethyl-1,4,7,8-tetrahydro-5H-imidazo [2,1-i]purine-5-one-2-yl)cinnamate]
- inhibition at 0.1 µM [1, 3]: 76%
- inhibition at 0.01 µM [1, 4]: 75%

Structure (SMILES): CCOC(=O)/C=C/c1ccc(-c2nc3c([nH]2)C2=NCCCN2C(=O)N3CC)cc1 [Compound 14, Ethyl (E)-4-(4-ethyl-1,4,5,7,8,9-hexahydropyrimido [2,1-i]purine-5-one-2-yl)cinnamate]
- inhibition at 0.1 µM [1, 3]: 55%
- inhibition at 0.01 µM [1, 4]: 29%

Structure (SMILES): CCN1C(=O)N2CCCN=C2c2[nH]c(-c3ccc(/C=C/C(=O)O)cc3)nc21 [Compound 15, (E)-4-(4-Ethyl-1,4,5,7,8,9-hexahydropyrimido [2,1-i]-purine-5-one-2-yl)cinnamic acid]
- inhibition at 0.1 µM [1, 3]: 66%
- inhibition at 0.01 µM [1, 4]: 21%

Structure (SMILES): CCOC(=O)/C=C/c1ccc(-c2nc3c([nH]2)C2=NC(CC)CN2C(=O)N3CC)cc1 (centres unmarked) [Compound 16, Ethyl (E)-4-(4,8-diethyl-1,4,7,8-tetrahydro-5H-imidazo-[2,1-i]purine-5-one-2-yl)cinnamate]
- inhibition at 0.1 µM [1, 3]: 92%
- inhibition at 0.01 µM [1, 4]: 17%

Structure (SMILES): CCC1CN2C(=O)N(CC)c3nc(-c4ccc(/C=C/C(=O)O)cc4)[nH]c3C2=N1 (centres unmarked) [Compound 17, (E)-4-(4,8-Diethyl-1,4,7,8-tetrahydro-5H-imidazo [2,1-i]-purine-5-one-2-yl)cinnamic acid]
- inhibition at 0.1 µM [1, 3]: 70%
- inhibition at 0.01 µM [1, 4]: 36%

Structure (SMILES): CCC1CN2C(=O)N(C)c3nc(-c4ccc(Br)cc4)[nH]c3C2=N1 (centres unmarked) [Compound 25, 2-(p-Bromophenyl)-8-ethyl-4-methyl-1,4,7,8-tetrahydro-5H-imidazo[2,1-i]purine-5-one hydrochloride]
- inhibition at 0.1 µM [1]: 97%
- inhibition at 0.01 µM [1]: 94%

Structure (SMILES): CCCCN1C(=O)N2CCN=C2c2[nH]c(-c3ccc(Br)cc3)nc21 [Compound 26, 2-(p-Bromophenyl)-4-n-butyl-1,4,7,8-tetrahydro-5H-imidazo[2,1-i]purine-5-one hydrochloride]
- inhibition at 0.01 µM [1]: 85%

Structure (SMILES): CCCN1C(=O)N2C[C@@H](C(C)C)N=C2c2[nH]c(-c3ccc(Br)cc3)nc21 [Compound 32, (R)-2-(p-Bromophenyl)-8-isopropyl-4-propyl-1,4,7,8-tetrahydro-5H-imidazo[2,1-i]purine-5-one]
- inhibition at 0.1 µM [1, 3]: 120%
- inhibition at 0.01 µM [1, 4]: 84%

Structure (SMILES): CCCN1C(=O)N2C[C@H](C(C)C)N=C2c2[nH]c(-c3ccc(Br)cc3)nc21 [Compound 33, (S)-2-(p-Bromophenyl)-8-isopropyl-4-propyl-1,4,7,8-tetrahydro-5H-imidazo[2,1-i]purine-5-one]
- inhibition at 0.1 µM [1, 3]: 95%
- inhibition at 0.01 µM [1, 4]: 89%

Structure (SMILES): CCCN1C(=O)N2C[C@@H](c3ccccc3)N=C2c2[nH]c(-c3ccc(Br)cc3)nc21 [Compound 35, (R)-2-(p-Bromophenyl)-8-phenyl-4-propyl-1,4,7,8-tetrahydro-5H-imidazo[2,1-i]-purine-5-one]
- inhibition at 0.1 µM [1, 3]: 52%
- inhibition at 0.01 µM [1, 4]: 94%

— patent US6306847A, “Condensed purine derivatives” (Kyowa Hakko Kogyo Co., Ltd., priority 1996, dated 2001)
